Experimental findings from paper PMC8843171 (Journal of Enzyme Inhibition and Medicinal Chemistry, 2022) are described below.

Common to all, as to experiment: stopped-flow CO2 hydrase assay
Common to all, as to assay type: biochemical
Holding throughout (conditions): read-out: [drawing 1] / 1

The target in one assay is T1, hCA VI (Homo sapiens, UniProt P23280).
T1 construct: gene CA6; recombinant, in-house
From the text: stopped-flow CO2 hydrase assay on hCA VI

The target in another assay is T2, hCA XIV (Homo sapiens, UniProt Q9ULX7).
T2 construct: gene CA14; recombinant, in-house
From the text: stopped-flow CO2 hydrase assay on hCA XIV

The target in the next assay is T3, hCA VII (Homo sapiens, UniProt P43166).
T3 construct: gene CA7; recombinant, in-house
From the text:
stopped-flow CO2 hydrase assay on hCA VII

In another assay the target is T4, hCA IX (Homo sapiens, UniProt Q16790).
T4 construct: gene CA9; recombinant, in-house
From the text:
stopped-flow CO2 hydrase assay on hCA IX

A further assay has as its target T5, hCA XII (Homo sapiens, UniProt O43570).
T5 construct: gene CA12; recombinant, in-house
From the text: stopped-flow CO2 hydrase assay on hCA XII

Another assay concerns the target T6, hCA VB (Homo sapiens, UniProt Q9Y2D0).
T6 construct: gene CA5B; recombinant, in-house
From the text: stopped-flow CO2 hydrase assay on hCA VB

A further assay addresses T7, hCA VA (Homo sapiens, UniProt P35218).
T7 construct: gene CA5A; recombinant, in-house
From the text:
stopped-flow CO2 hydrase assay on hCA VA

The target of another assay is T8, hCA II (Homo sapiens, UniProt P00918).
T8 construct: gene CA2; recombinant, in-house
The source says:
stopped-flow CO2 hydrase assay on hCA II

For the next assay, the target named is T9, hCA IV (Homo sapiens, UniProt P22748).
T9 construct: gene CA4; recombinant, in-house
From the text: stopped-flow CO2 hydrase assay on hCA IV

Another assay deals with T10, hCA XIII (Homo sapiens, UniProt Q8N1Q1).
T10 construct: gene CA13; recombinant, in-house
From the text:
stopped-flow CO2 hydrase assay on hCA XIII

The target of a further assay is T11, hCA I (Homo sapiens, UniProt P00915).
T11 construct: gene CA1; recombinant, in-house
From the text:
stopped-flow CO2 hydrase assay on hCA I

T5 sequence (O43570 25-354): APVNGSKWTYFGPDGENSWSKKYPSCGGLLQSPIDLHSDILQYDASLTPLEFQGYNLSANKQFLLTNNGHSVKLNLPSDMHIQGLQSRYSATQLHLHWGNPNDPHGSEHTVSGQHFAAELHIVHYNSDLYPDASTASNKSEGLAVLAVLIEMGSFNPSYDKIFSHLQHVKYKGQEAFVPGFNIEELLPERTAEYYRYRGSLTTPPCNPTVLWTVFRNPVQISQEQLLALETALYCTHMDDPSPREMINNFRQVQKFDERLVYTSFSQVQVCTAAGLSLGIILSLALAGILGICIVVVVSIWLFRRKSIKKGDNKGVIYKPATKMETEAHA
T11 sequence (P00915 2-261): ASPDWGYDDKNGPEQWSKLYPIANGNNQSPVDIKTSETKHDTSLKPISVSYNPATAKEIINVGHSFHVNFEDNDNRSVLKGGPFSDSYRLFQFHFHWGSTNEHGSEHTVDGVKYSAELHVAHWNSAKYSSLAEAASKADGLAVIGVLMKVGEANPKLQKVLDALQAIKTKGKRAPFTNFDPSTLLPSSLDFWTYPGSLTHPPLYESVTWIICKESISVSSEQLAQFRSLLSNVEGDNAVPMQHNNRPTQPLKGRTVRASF
T2 sequence (Q9ULX7 16-290 limits assumed): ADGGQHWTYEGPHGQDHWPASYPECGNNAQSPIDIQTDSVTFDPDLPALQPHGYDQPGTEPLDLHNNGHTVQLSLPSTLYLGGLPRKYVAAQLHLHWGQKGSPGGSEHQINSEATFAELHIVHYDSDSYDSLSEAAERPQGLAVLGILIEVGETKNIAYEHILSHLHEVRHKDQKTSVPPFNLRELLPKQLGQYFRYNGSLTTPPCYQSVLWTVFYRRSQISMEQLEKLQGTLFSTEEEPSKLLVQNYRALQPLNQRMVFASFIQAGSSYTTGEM
T6 sequence (Q9Y2D0 34-317): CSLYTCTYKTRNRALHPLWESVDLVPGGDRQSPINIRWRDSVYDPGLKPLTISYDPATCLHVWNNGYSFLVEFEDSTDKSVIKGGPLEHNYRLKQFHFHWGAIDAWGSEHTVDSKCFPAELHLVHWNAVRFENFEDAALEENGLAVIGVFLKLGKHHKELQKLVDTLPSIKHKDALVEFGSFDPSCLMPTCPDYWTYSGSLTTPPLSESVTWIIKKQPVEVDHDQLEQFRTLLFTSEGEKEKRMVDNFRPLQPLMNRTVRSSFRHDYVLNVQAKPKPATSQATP
T1 sequence (P23280 18-308): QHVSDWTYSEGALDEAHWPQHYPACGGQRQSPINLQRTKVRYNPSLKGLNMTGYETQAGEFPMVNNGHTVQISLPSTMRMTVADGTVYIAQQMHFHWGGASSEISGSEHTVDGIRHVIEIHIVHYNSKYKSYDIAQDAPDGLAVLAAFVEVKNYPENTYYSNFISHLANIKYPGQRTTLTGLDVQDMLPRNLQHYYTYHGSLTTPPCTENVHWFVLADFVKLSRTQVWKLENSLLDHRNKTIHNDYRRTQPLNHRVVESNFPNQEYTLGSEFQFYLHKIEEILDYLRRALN
T7 sequence (P35218 39-305): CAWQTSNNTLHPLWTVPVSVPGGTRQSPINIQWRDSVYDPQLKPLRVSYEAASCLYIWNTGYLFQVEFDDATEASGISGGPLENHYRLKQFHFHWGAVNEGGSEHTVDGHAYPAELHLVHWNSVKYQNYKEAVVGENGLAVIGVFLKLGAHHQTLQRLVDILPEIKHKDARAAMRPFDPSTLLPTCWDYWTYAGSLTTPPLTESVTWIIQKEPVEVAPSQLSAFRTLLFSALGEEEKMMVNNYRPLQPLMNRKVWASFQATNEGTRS
T3 sequence (P43166 whole entry): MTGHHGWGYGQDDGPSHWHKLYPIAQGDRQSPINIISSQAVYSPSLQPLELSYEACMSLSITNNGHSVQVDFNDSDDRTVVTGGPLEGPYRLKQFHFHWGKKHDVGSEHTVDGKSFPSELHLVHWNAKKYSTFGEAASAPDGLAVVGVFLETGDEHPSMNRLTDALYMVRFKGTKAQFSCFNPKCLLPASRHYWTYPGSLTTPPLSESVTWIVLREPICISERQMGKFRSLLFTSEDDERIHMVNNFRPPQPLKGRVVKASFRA
T9 sequence (P22748 19-284): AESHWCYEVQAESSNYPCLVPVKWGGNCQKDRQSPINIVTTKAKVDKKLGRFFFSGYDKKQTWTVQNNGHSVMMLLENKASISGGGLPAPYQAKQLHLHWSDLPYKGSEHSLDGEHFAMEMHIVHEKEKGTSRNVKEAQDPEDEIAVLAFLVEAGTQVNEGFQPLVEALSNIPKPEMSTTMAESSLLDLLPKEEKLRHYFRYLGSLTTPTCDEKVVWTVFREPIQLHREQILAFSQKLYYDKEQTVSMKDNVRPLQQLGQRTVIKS
T10 sequence (Q8N1Q1 whole entry): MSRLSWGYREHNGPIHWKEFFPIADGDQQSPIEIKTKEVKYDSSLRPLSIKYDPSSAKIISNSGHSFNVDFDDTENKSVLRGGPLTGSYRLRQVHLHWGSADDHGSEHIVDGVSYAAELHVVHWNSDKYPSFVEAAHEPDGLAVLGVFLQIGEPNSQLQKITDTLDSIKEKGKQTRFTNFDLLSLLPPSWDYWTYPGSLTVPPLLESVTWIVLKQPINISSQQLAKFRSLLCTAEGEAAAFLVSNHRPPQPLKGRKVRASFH

Turning to `Cc1cnc(C(=O)O)c[n+]1[O-]` [compound 1, Acipimox], the Ki worked out at 7 µM at hCA VI; 5.9 µM at hCA XIV; 9.2 µM at hCA VII; 6.3 µM at hCA IX; 8.4 µM at hCA XII; 2.8 µM on hCA VB. Also, the Ki on hCA VA was determined as 7.5 µM; on hCA II, 7.5 µM; on hCA IV, 8.8 µM; on hCA XIII, 87 µM; on hCA I it was 3.3 µM.
